This is an account of results in patent publication US20250215030A1, “STAT MODULATORS AND USES THEREOF” (Recludix Pharma, Inc., priority 2022, published 2025).

Assay [1] concerns the target T1, Recombinant STAT3 protein (STAT3(G127-I722)) (Homo sapiens, UniProt P40763).
T1 construct: STAT3(G127-I722)
Put plainly: STAT3 Fluorescence Polarization (FP) Assay. It counts as binding. The note with it: STAT3(G127-I722) 25 nM, probe 5-FAM-GpYLPQTV-NH2 2 nM, 45-minute incubation. The method in brief:
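Serially diluted compounds (1% DMSO) were mixed with 2 nM fluorescent phosphotyrosine peptide and 25 nM STAT3 construct G127-I722, pH 7.4, incubated 45 min at room temperature. IC50 values from fitted polarization curves are reported as categories A (≤100 nM), B, C, D (>10 μM).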
Background: In fluorescence polarisation assays a small probe gives low polarisation when free and higher when bound to something large.

The target of assay [2] is T2, Recombinant STAT6 protein (STAT6(W123-T658)) (Homo sapiens, UniProt P42226).
T2 construct: STAT6(W123-T658)
T2 sequence (P42226 123-658): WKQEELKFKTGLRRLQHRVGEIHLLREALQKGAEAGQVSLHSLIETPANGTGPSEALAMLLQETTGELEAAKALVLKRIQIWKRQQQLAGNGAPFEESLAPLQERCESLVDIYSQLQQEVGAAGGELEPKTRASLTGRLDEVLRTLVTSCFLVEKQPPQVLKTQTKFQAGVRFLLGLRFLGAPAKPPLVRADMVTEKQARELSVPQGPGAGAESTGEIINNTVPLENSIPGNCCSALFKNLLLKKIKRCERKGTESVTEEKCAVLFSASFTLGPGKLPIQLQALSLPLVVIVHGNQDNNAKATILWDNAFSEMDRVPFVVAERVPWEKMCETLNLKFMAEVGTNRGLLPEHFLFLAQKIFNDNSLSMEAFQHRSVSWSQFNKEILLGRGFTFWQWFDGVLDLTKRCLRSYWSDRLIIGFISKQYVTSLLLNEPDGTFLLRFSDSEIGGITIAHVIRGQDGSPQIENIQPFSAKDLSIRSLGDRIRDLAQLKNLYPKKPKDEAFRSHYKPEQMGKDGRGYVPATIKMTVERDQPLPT
The assay can be described thus: STAT6 Fluorescence Polarization (FP) Assay. The note with it: STAT6(W123-T658) 250 nM, probe 5-FAM-ApYKPFQDLI-NH2 2 nM, 45-minute incubation. The class given is binding. The method in brief:
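Competitive displacement of a fluorescent phosphotyrosine peptide (2 nM) from recombinant STAT6 W123-T658 (250 nM), 45 min at room temperature in 10 mM HEPES pH 7.4, 50 mM NaCl, 2 mM DTT. mP fitted against log compound for IC50, grouped A (≤300 nM) to D (>30 μM).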

T1 sequence (P40763 127-722, species assumed): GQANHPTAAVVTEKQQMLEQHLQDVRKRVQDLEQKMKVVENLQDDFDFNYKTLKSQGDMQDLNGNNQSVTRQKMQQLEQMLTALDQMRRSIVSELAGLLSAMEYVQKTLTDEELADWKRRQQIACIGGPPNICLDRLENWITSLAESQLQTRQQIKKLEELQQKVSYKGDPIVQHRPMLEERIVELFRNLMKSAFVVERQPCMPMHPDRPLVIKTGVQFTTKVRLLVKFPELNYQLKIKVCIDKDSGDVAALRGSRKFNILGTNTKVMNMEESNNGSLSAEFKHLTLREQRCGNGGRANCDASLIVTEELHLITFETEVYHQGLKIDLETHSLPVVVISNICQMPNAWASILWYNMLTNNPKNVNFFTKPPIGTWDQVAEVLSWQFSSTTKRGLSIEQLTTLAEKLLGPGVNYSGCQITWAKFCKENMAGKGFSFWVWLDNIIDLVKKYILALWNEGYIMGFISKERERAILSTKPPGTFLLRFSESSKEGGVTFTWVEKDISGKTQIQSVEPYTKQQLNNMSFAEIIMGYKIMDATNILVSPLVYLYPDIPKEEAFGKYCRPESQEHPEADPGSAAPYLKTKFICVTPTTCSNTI

In general, IC50 refers to the point on the concentration scale where inhibition reaches its midpoint. Turning to `O=C(N[C@H]1C[C@@H]2C[C@@H]2C[C@H]2CC[C@@H](C(=O)Nc3ccc(-c4ccccc4)cc3)N2C1=O)c1cc2cc(C(F)(F)P(=O)(O)O)ccc2s1` [Compound 32, ((2-(((3S,6S,7aS,8aR,9aR)-3-([1,1′-biphenyl]-4-ylcarbamoyl)-5-oxodecahydro-1H-cyclopropa[d]pyrrolo[1,2-a]azocin-6-yl)carbamoyl)benzo[b]thiophen-5-yl)difluoromethyl)phosphonic acid], the results for the IC50 in assay [1] and in assay [2] were below 100 nM and 300 to 3000 nM, respectively.
For the compound `CC(c1ccc2sc(C(=O)N[C@H]3C[C@@H]4C[C@@H]4C[C@H]4CC[C@@H](C(=O)N5CC(C(=O)N6CCOCC6)C5)N4C3=O)cc2c1)P(=O)(O)O` (stereo partly drawn) [Compound 35, (1-(2-(((3S,6S,7aS,8aR,9aR)-3-(3-(morpholine-4-carbonyl)azetidine-1-carbonyl)-5-oxodecahydro-1H-cyclopropa[d]pyrrolo[1,2-a]azocin-6-yl)carbamoyl)benzo[b]thiophen-5-yl)ethyl)phosphonic acid], the IC50 in assay [1] is 100 to 1000 nM; in assay [2], above 30000 nM.
Taken in the same sequence, the figures for `O=C(N[C@H]1C[C@@H]2C[C@@H]2C[C@H]2CC[C@@H](C(=O)N3CC(c4cccnc4)C3)N2C1=O)c1cc2cc(C(F)(F)P(=O)(O)O)ccc2s1` [Compound 36, (difluoro(2-(((3S,6S,7aS,8aR,9aR)-5-oxo-3-(3-(pyridin-3-yl)azetidine-1-carbonyl)decahydro-1H-cyclopropa[d]pyrrolo[1,2-a]azocin-6-yl)carbamoyl)benzo[b]thiophen-5-yl)methyl)phosphonic acid] were below 100 nM and 300 to 3000 nM.
With `C[C@]12CC(NC(=O)c3cc4cc(C(F)(F)P(=O)(O)O)ccc4s3)C(=O)N3[C@H](CC[C@H]3C(=O)N3CC(c4cccnc4)C3)[C@H]1C2` (stereo partly drawn) [Compound 37, (difluoro(2-(((3S,6S,7aS,8aR,9aR)-7a-methyl-5-oxo-3-(3-(pyridin-3-yl)azetidine-1-carbonyl)decahydro-1H-cyclopropa[d]pyrrolo[1,2-a]azocin-6-yl)carbamoyl)benzo[b]thiophen-5-yl)methyl)phosphonic acid], the results for the IC50 in assay [1] and in assay [2] were below 100 nM and 3000 to 30000 nM, respectively.
In the case of `C[C@@]12C[C@H](NC(=O)c3cc4cc(C(F)(F)P(=O)(O)O)ccc4s3)C(=O)N3[C@H](CC[C@H]3C(=O)N3CC(c4cccnc4)C3)[C@@H]1C2` [Compound 38, (difluoro(2-(((3S,6S,7aR,8aS,9aR)-7a-methyl-5-oxo-3-(3-(pyridin-3-yl)azetidine-1-carbonyl)decahydro-1H-cyclopropa[d]pyrrolo[1,2-a]azocin-6-yl)carbamoyl)benzo[b]thiophen-5-yl)methyl)phosphonic acid], the IC50 fell in the range of 100 to 1000 nM in assay [1] and 3000 to 30000 nM in assay [2].
For `O=C(N[C@H]1C[C@@H]2C[C@@H]2C[C@H]2CC[C@@H](C(=O)N[C@@H]3CCN(c4ccccn4)C3)N2C1=O)c1cc2cc(C(F)(F)P(=O)(O)O)ccc2s1` [Compound 39, (difluoro(2-(((3S,6S,7aS,8aR,9aR)-5-oxo-3-(((R)-1-(pyridin-2-yl)pyrrolidin-3-yl)carbamoyl)decahydro-1H-cyclopropa[d]pyrrolo[1,2-a]azocin-6-yl)carbamoyl)benzo[b]thiophen-5-yl)methyl)phosphonic acid], in that order: below 100 nM and 3000 to 30000 nM.
For `CC(=O)N1CC2(C1)CN(C(=O)[C@@H]1CC[C@@H]3C[C@H]4C[C@H]4C[C@H](NC(=O)c4cc5cc(C(F)(F)P(=O)(O)O)ccc5s4)C(=O)N31)C2` [Compound 40, ((2-(((3S,6S,7aS,8aR,9aR)-3-(6-acetyl-2,6-diazaspiro[3.3]heptane-2-carbonyl)-5-oxodecahydro-1H-cyclopropa[d]pyrrolo[1,2-a]azocin-6-yl)carbamoyl)benzo[b]thiophen-5-yl)difluoromethyl)phosphonic acid], in that order: below 100 nM and 300 to 3000 nM.
Taken in the same sequence, the figures for `O=C(N[C@H]1C[C@@H]2C[C@@H]2C[C@H]2CC[C@@H](C(=O)N3CC4(CN(C(=O)Cc5ccccc5)C4)C3)N2C1=O)c1cc2cc(C(F)(F)P(=O)(O)O)ccc2s1` [Compound 41, (difluoro(2-(((3S,6S,7aS,8aR,9aR)-5-oxo-3-(6-(2-phenylacetyl)-2,6-diazaspiro[3.3]heptane-2-carbonyl)decahydro-1H-cyclopropa[d]pyrrolo[1,2-a]azocin-6-yl)carbamoyl)benzo[b]thiophen-5-yl)methyl)phosphonic acid] were below 100 nM and 300 to 3000 nM.
As for `O=C(N[C@H]1C[C@@H]2C[C@@H]2C[C@H]2CC[C@@H](C(=O)N3CCN(C(=O)C4COC4)CC3)N2C1=O)c1cc2cc(C(F)(F)P(=O)(O)O)ccc2s1` [Compound 42, (difluoro(2-(((3S,6S,7aS,8aR,9aR)-3-(4-(oxetane-3-carbonyl)piperazine-1-carbonyl)-5-oxodecahydro-1H-cyclopropa[d]pyrrolo[12-a]azocin-6-yl)carbamoyl)benzo[b]thiophen-5-yl)methyl)phosphonic acid], the results for the IC50 in assay [1] and in assay [2] were 100 to 1000 nM and 300 to 3000 nM, respectively.
Taken in the same sequence, the figures for `O=C(N[C@H]1C[C@@H]2C[C@@H]2C[C@H]2CC[C@@H](C(=O)N3CCN(C4COC4)CC3)N2C1=O)c1cc2cc(C(F)(F)P(=O)(O)O)ccc2s1` [Compound 43, (difluoro(2-(((3S,6S,7aS,8aR,9aR)-3-(4-(oxetan-3-yl)piperazine-1-carbonyl)-5-oxodecahydro-1H-cyclopropa[d]pyrrolo[1,2-a]azocin-6-yl)carbamoyl)benzo[b]thiophen-5-yl)methyl)phosphonic acid] were 100 to 1000 nM and 3000 to 30000 nM.
For `O=C(N[C@H]1C[C@@H]2C[C@@H]2C[C@H]2CC[C@@H](C(=O)NC3CN(c4ccccn4)C3)N2C1=O)c1cc2cc(C(F)(F)P(=O)(O)O)ccc2s1` [Compound 44, (difluoro(2-(((3S,6S,7aS,8aR,9aR)-5-oxo-3-((1-(pyridin-2-yl)azetidin-3-yl)carbamoyl)decahydro-1H-cyclopropa[d]pyrrolo[1,2-a]azocin-6-yl)carbamoyl)benzo[b]thiophen-5-yl)methyl)phosphonic acid], in that order: below 100 nM and 300 to 3000 nM.
For `O=C(N[C@H]1C[C@@H]2C[C@@H]2C[C@H]2CC[C@@H](C(=O)N3CC(n4ccnc4)C3)N2C1=O)c1ccc2ccc(C(F)(F)P(=O)(O)O)cc2c1` [Compound 46, ((7-(((3S,6S,7aS,8aR,9aR)-3-(3-(1H-imidazol-1-yl)azetidine-1-carbonyl)-5-oxodecahydro-1H-cyclopropa[d]pyrrolo[1,2-a]azocin-6-yl)carbamoyl)naphthalen-2-yl)difluoromethyl)phosphonic acid], in that order: below 100 nM and 300 to 3000 nM.
On to `O=C(N[C@H]1C[C@H]2C[C@H]2C[C@H]2CC[C@@H](C(=O)N[C@@H]3CCN(c4cccnc4)C3)N2C1=O)c1cc2cc(C(F)(F)P(=O)(O)O)ccc2s1` [Compound 47, (difluoro(2-(((3S,6S,7aR,8aS,9aR)-5-oxo-3-(((R)-1-(pyridin-3-yl)pyrrolidin-3-yl)carbamoyl)decahydro-1H-cyclopropa[d]pyrrolo[1,2-a]azocin-6-yl)carbamoyl)benzo[b]thiophen-5-yl)methyl)phosphonic acid], for which the IC50 in assay [1] is below 100 nM; in assay [2], 300 to 3000 nM.
Take `O=C(N[C@H]1C[C@@H]2C[C@@H]2C[C@H]2CC[C@@H](C(=O)N[C@@H]3CCN(C4COC4)C3)N2C1=O)c1cc2cc(C(F)(F)P(=O)(O)O)ccc2s1` [Compound 48, (difluoro(2-(((3S,6S,7aS,8aR,9aR)-3-(((R)-1-(oxetan-3-yl)pyrrolidin-3-yl)carbamoyl)-5-oxodecahydro-1H-cyclopropa[d]pyrrolo[1,2-a]azocin-6-yl)carbamoyl)benzo[b]thiophen-5-yl)methyl)phosphonic acid]: the IC50 in assay [1] lay within 100 to 1000 nM; in assay [2], 3000 to 30000 nM.
Consider `N#Cc1cccc(C2CN(C(=O)[C@@H]3CC[C@@H]4C[C@H]5C[C@H]5C[C@H](NC(=O)c5cc6cc(C(F)(F)P(=O)(O)O)ccc6s5)C(=O)N43)C2)c1` [Compound 49, ((2-(((3S,6S,7aS,8aR,9aR)-3-(3-(3-cyanophenyl)azetidine-1-carbonyl)-5-oxodecahydro-1H-cyclopropa[d]pyrrolo[1,2-a]azocin-6-yl)carbamoyl)benzo[b]thiophen-5-yl)difluoromethyl)phosphonic acid], for which the values for the IC50 in assay [1] and in assay [2] were below 100 nM and 3000 to 30000 nM, respectively.
